Test results as given in patent US10273217B2, “Triazole derivatives” (Hoffmann-La Roche Inc., priority 2015, dated 2019).

Columns and labels:
human EAAT3 = target: T1, human EAAT3 (Homo sapiens, UniProt P43005); assay: FLIPR Membrane Potential (FMP) assay, antagonist potency at human EAAT3; format: cell-based; settings: HEK-293 cells stably expressing human EAAT3; L-glutamate as agonist at EC80; Kb from IC50 by Cheng-Prusoff equation
T1 construct: expressed in transfected cells
T1 sequence (P43005 1-524): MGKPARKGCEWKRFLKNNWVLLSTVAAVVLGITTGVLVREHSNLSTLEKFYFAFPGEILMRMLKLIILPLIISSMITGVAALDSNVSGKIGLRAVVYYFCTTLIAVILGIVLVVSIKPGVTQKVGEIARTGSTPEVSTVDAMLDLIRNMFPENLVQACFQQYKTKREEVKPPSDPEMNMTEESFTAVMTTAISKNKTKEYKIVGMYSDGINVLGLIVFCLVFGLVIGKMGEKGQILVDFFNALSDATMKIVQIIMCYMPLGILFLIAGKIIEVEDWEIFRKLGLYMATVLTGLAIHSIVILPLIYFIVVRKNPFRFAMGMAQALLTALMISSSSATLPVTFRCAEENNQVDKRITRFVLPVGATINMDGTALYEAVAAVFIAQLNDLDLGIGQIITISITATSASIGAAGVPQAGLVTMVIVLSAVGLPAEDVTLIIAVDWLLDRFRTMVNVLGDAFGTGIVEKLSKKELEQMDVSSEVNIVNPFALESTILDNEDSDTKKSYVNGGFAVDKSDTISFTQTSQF
Description: The FLIPR Membrane Potential (FMP) Assay
HEK-293 cells stably expressing human EAAT3 were seeded at 55 000 cells/well in growth medium (DMEM glutamate free (Invitrogen 11960-044), 1% Pen Strep (10 ml/l GIBCO BRL N°15140-023), 10% FCS non dialysed heat inactivated, 5 mg/l puromycin) in poly-D-lysine treated 96-well black microtiter plates with clear-bottom. After 24 h, the growth medium was removed and 100 μl/well of Krebs buffer (140 mM NaCl, 4.7 mM KCl, 2.5 mM CaCl2, 1.2 mM MgCl2, 11 mM HEPES, 10 mM D-glucose, pH=7.4) added. The cells were then loaded by adding 100 μl/well FMP assay dye (FLIPR Membrane Potential assay reagent, Molecular Devices). The 96-well plates were then incubated at 37° C. for 1 h. The depolarization of the cells will cause more dye to enter in the cells, where it will bind to intracellular proteins and lipids and cause an increase in the fluorescence signal. Antagonist potency at human EAAT3 was determined by using L-glutamate as agonist at a concentration which gives 80% of the maximum response. The antagonists were applied 15 min before the application of the agonist L-glutamate. The assays were performed at room temperature and measurements done by using a Fluorometric Imaging Plate Reader (FLIPR, Molecular Devices) and filter #2. Responses were measured as peak increase in fluorescence minus basal (i.e. fluorescence without addition of L-glutamate). Kb was determined using the Cheng-Prusoff equation Kb=IC50/[1+(A/EC50)], where IC50 is the concentration of the antagonist producing 50% inhibition, A is the concentration of the agonist against which the IC50 is being determined (at EC80) and EC50 is the concentration of the agonist producing 50% […].

SMILES | Kb (human EAAT3) | melting point
CC(C)(C)NC(=O)c1cc(-c2ccc(Cl)cc2)cc(-n2cnnc2C(C)(C)O)c1 [Example 27, N-tert-Butyl-3-(4-chlorophenyl)-5-[3-(2-hydroxypropan-2-yl)-1,2,4-triazol-4-yl]-benzamide] | 64 nM | 163 °C
Cc1nncn1-c1cc(C(=O)NC(C)(C)C)cc(-c2ccc(C(F)(F)F)cc2)c1 [Example 7, N-tert-Butyl-3-(3-methyl-1,2,4-triazol-4-yl)-5-[4-(trifluoromethyl)-phenyl]-benzamide] | 130 nM | 225.5 °C
CC(C)c1nncn1-c1cc(C(=O)NC(C)(C)C2CC2)cc(-c2ccc(F)cc2)c1 [Example 16, N-(2-Cyclopropylpropan-2-yl)-3-(4-fluorophenyl)-5-(3-propan-2-yl-1,2,4-triazol-4-yl)-benzamide] | 100 nM | 101 °C
CCC(C)(C)NC(=O)c1cc(-c2ccc(Cl)cc2)cc(-n2cnnc2C(C)C)c1 [Example 25, 3-(4-Chlorophenyl)-N-(2-methylbutan-2-yl)-5-(3-propan-2-yl-1,2,4-triazol-4-yl)-benzamide] | 120 nM | 103 °C
CC(C)(C)NC(=O)c1cc(-c2ccc(Cl)cc2)cc(-n2cnnc2C(C)(C)C)c1 [Example 9, N-tert-Butyl-3-(3-tert-butyl-1,2,4-triazol-4-yl)-5-(4-chlorophenyl)-benzamide] | 180 nM | 292.5 °C
CC(C)(C)c1nncn1-c1cc(C(=O)NC(C)(C)C2CC2)cc(-c2ccc(Cl)cc2)c1 [Example 13, 3-(3-tert-Butyl-1,2,4-triazol-4-yl)-5-(4-chlorophenyl)-N-(2-cyclopropylpropan-2-yl)-benzamide] | 290 nM | 136.5 °C
CC1(NC(=O)c2cc(-c3ccc(Cl)cc3)cc(-n3cnnc3CO)c2)CCS(=O)(=O)C1 (racemic) [Example 36, (RS)-3-(4-Chlorophenyl)-5-[3-(hydroxymethyl)-1,2,4-triazol-4-yl]-N-(3-methyl-1,1-dioxothiolan-3-yl)-benzamide] | 1570 nM | 161.5 °C
CC(C)(C)NC(=O)c1cc(-c2ccc(F)cc2)cc(-n2cnnc2C(C)(C)C)c1 [Example 8, N-tert-Butyl-3-(3-tert-butyl-1,2,4-triazol-4-yl)-5-(4-fluorophenyl)-benzamide] | 190 nM | 279 °C
Cc1cc(-c2cc(C(=O)NC(C)(C)C)cc(-n3cnnc3C(C)C)c2)ccc1F [Example 31, N-tert-Butyl-3-(4-fluoro-3-methyl-phenyl)-5-(3-propan-2-yl-1,2,4-triazol-4-yl)-benzamide] | 98 nM | 106 °C
CC(C)(C)NC(=O)c1cc(-c2ccc(Cl)cc2)cc(-n2cnnc2CO)c1 [Example 26, N-tert-Butyl-3-(4-chlorophenyl)-5-[3-(hydroxymethyl)-1,2,4-triazol-4-yl]-benzamide] | 145 nM | 210 °C
CC(C)c1nncn1-c1cc(C(=O)NC(C)(C)C2CC2)cc(-c2ccc(C(F)(F)F)cc2)c1 [Example 19, N-(2-Cyclopropyl-propan-2-yl)-3-(3-propan-2-yl-1,2,4-triazol-4-yl)-5-[4-(trifluoromethyl)-phenyl]-benzamide] | 220 nM | 100 °C
Cc1ccc(-c2cc(C(=O)NC(C)(C)C)cc(-n3cnnc3C(C)C)c2)cc1F [Example 32, N-tert-Butyl-3-(3-fluoro-4-methyl-phenyl)-5-(3-propan-2-yl-1,2,4-triazol-4-yl)-benzamide] | 120 nM | 109 °C
CC(C)c1nncn1-c1cc(C(=O)NC(C)(C)C)cc(-c2ccc(C3CC3)cc2)c1 [Example 35, N-tert-Butyl-3-(4-cyclopropyl-phenyl)-5-(3-propan-2-yl-1,2,4-triazol-4-yl)-benzamide] | 130 nM | 120 °C
CC(C)c1nncn1-c1cc(C(=O)NC(C)(C)C)cc(-c2ccc(C#N)cc2)c1 [Example 34, N-tert-Butyl-3-(4-cyano-phenyl)-5-(3-propan-2-yl-1,2,4-triazol-4-yl)-benzamide] | 220 nM | 290 °C
CC(C)c1nncn1-c1cc(C(=O)NC(C)(C)C)cc(-c2ccc(C(F)(F)F)cc2)c1 [Example 18, N-tert-Butyl-3-(3-propan-2-yl-1,2,4-triazol-4-yl)-5-[4-(trifluoromethyl)-phenyl]-benzamide] | 130 nM | 126 °C
Cc1nncn1-c1cc(C(=O)NC(C)(C)C)cc(-c2ccc(Cl)cc2)c1 [Example 6, N-tert-Butyl-3-(4-chlorophenyl)-5-(3-methyl-1,2,4-triazol-4-yl)-benzamide] | 76 nM | 241 °C
COc1ccc(-c2cc(C(=O)NC(C)(C)C)cc(-n3cnnc3C(C)C)c2)cc1 [Example 29, N-tert-Butyl-3-(4-methoxyphenyl)-5-(3-propan-2-yl-1,2,4-triazol-4-yl)-benzamide] | 290 nM | 107 °C
CC(C)c1nncn1-c1cc(C(=O)NC(C)(C)C)cc(-c2ccc(F)c(F)c2)c1 [Example 28, N-tert-Butyl-3-(3,4-difluorophenyl)-5-(3-propan-2-yl-1,2,4-triazol-4-yl)-benzamide] | 160 nM | 115 °C
CC(C)c1nncn1-c1cc(C(=O)NC(C)(C)C)cc(-c2ccc(Cl)cc2)c1 [Example 15, N-tert-Butyl-3-(4-chlorophenyl)-5-(3-propan-2-yl-1,2,4-triazol-4-yl)-benzamide] | 75 nM | 239.5 °C
CC(C)c1nncn1-c1cc(C(=O)NC(C)(C)C)cc(-c2ccc(F)cc2)c1 [Example 14, N-tert-Butyl-3-(4-fluorophenyl)-5-(3-propan-2-yl-1,2,4-triazol-4-yl)-benzamide] | 75 nM | 240.5 °C
CC(C)(C)NC(=O)c1cc(-c2ccc(F)cc2)cc(-n2cnnc2)c1 [Example 2, N-tert-Butyl-3-(4-fluorophenyl)-5-(1,2,4-triazol-4-yl)-benzamide] | 290 nM | 204 °C
Cc1ccc(-c2cc(C(=O)NC(C)(C)C)cc(-n3cnnc3C(C)C)c2)cc1 [Example 33, N-tert-Butyl-3-(4-methyl-phenyl)-5-(3-propan-2-yl-1,2,4-triazol-4-yl)-benzamide] | 100 nM | 100 °C
CCC(C)(C)NC(=O)c1cc(-c2ccc(C(F)(F)F)cc2)cc(-n2cnnc2C(C)C)c1 [Example 23, N-(2-Methylbutan-2-yl)-3-(3-propan-2-yl-1,2,4-triazol-4-yl)-5-[4-(trifluoromethyl)-phenyl]-benzamide] | 94 nM | 104 °C
CC(C)c1nncn1-c1cc(C(=O)NC(C)(C)C2CC2)cc(-c2ccc(Cl)cc2)c1 [Example 17, 3-(4-Chlorophenyl)-N-(2-cyclopropyl-propan-2-yl)-5-(3-propan-2-yl-1,2,4-triazol-4-yl)-benzamide] | 190 nM | 105 °C
CC(C)c1nncn1-c1cc(C(=O)NC(C)(C)C)cc(-c2ccc(Cl)c(F)c2)c1 [Example 30, N-tert-Butyl-3-(4-chloro-3-fluorophenyl)-5-(3-propan-2-yl-1,2,4-triazol-4-yl)-benzamide] | 100 nM | 135 °C
